US8637058B2, “Compositions based on cupric salts, cupric salts and their use for controlling phytopathogens” (priority 2001, dated 2014)

Tested on: isolated portion of the phytopathogen with a reduced sensitivity (Plasmopara viticola)
Test: Control of Plasmopara viticola on grapes, preventive leaf application (greenhouse test), isolate with reduced sensitivity
Format: in vivo
Settings: fungicide alone at 0.05 ppm, scale 100 to 0
Procedure: Efficacy of Compound Nr. 1 Mixed with Another Fungicidal Compound in the Control of Plasmopara viticola on Grapes in Preventive Leaf Application (Greenhouse Test) Table 3.
Leaves of cultivar Dolcetto grape vines, cultivated in vases, in a conditioned environment (20±1° C., 70% relative humidity) are treated by spraying both sides of the leaves with compound Nr. 1 mixed with another fungicide dispersed in a hydroacetone solution at 10% by volume of acetone containing 0.3% of tween 20.
After remaining 24 hours in a conditioned environment, the plants are infected on the lower side with an aqueous suspension of spores of Plasmopara viticola (200,000 spores per cm^3).
The plants are kept in a humidity saturated environment, at 21° C., for the incubation period of the fungus and, at the end of this period (7 days), the fungicidal activity is evaluated according to a percentage evaluation scale from 100 (healthy plant) to 0 (completely infected plant).
From the data indicated in Table 3, the synergic effect of the mixtures, consisting of compound Nr. […]
When the fungicidal activity experimentally evaluated is greater than the value of E, this activity should be considered as a synergic effect.

COCC(=O)N(c1c(C)cccc1C)C(C)C(=O)OC (stereo not shown) [Metalaxyl, metalaxyl]
Activity (y): 12
